From patent publication US10793575B2, “Oxoisoquinoline derivatives” (CARNA BIOSCIENCES, INC., priority 2016, dated 2020)

Columns and labels:
dephosphorylated BTK = dephosphorylated BTK (Homo sapiens (Human), UniProt Q06187); experiment: BTK Activity Inhibition Test (mobility shift assay); type: biochemical; conditions: 200 μM ATP, read-out: Inhibitory Activity on BTK
Method: Dephosphorylated BTK was obtained by adding λ protein phosphatase (manufactured by New England BioLabs Inc., Code No. P0753S) and MnCl2 at 10 U/μg and 2 mM, respectively, to biotinylated BTK protein BTN-BTK (Manufactured by Carna Biosciences, Inc.) enzyme solution, reacting the mixture at 4° C. overnight, and removing of λ protein phosphatase by anti […]-tag antibody agarose gel chromatography, followed by buffer exchange using a 10DG Desalting Column.
The kinase activity was measured using QuickScout Screening Assist (trade mark) MSA (commercially available kit manufactured by Carna Biosciences, Inc.) by mobility shift assay (MSA) method. The substrate of the kinase reaction was an FITC-labeled SRCtide peptide included in the kit. An assay buffer [20 mM HEPES, 0.01% Triton X-100 (Trade mark), 2 mM dithiothreitol, pH 7.5] was used and adjusted at 4 μM substrate, 20 mM MgCl2 and 200 μm ATP to obtain a substrate mixture solution. The enzyme solution was also prepared by diluting the dephosphorylated BTK to 0.46 nM using the assay buffer. The 10 mM solution of the test compound in DMSO was further diluted with DMSO to 10 levels of the concentration (0.00003 mM, 0.0001 mM, 0.0003 mM, 0.001 mM, 0.003 mM, 0.01 mM, 0.03 mM, 0.1 mM, 0.3 mM, 1 mM), each of which was subjected to a 25-fold dilution with the assay buffer to obtain the drug solutions (4% DMSO solutions). 5 μL of the drug solution or a control solution (4% DMSO-assay buffer), 5 μL of the substrate mixture solution, and 10 μL of the enzyme solution were mixed in the wells of a polypropylene 384-well plate and allowed to react at room temperature for 2 hours, and then quenched by adding 60 μL of the termination buffer included in the kit. Subsequently, the quantities of the substrates (S) and the phosphorylated substrate (P) in the reaction solution were measured using LabChip EZ Reader II system (manufactured by Caliper Life Sciences) according to the protocol of the assay kit.
The heights of the peaks of the isolated substrate and the phosphorylated substrate were represented as S and P, respectively, and a blank which contained the assay buffer instead of the enzyme solution was also measured.
The inhibition rate (%) of the test compound was calculated according to the following equation; Inhibition rate (%)=(1−(C−A)/(B−A))×100 • wherein, A, B and C represent P/(P+S) of the blank well, P/(P+S) of the control well and P/(P+S) of the compound-containing well, respectively.
The IC50 value was calculated via a regression analysis of the inhibition rate (%) and the test compound concentration (logarithmic value).

OCI-Ly10 cells = experiment: Proliferation-Inhibitory Test Against Diffuse Large-Cell B-Cell Lymphoma OCI-Ly10 Strain; type: cell-based; conditions: Homo sapiens, 96 hours, alamarBlue
Method: OCI-Ly10 cells were cultured in IMDM medium (Iscove's Modified Dulbecco's Medium, Manufactured by Thermo Fisher Scientific Inc., hereinafter “medium”) containing 20% Fetal bovine serum and 1% penicillin-streptomycin (Nacalai Tesque, Inc.) in a 5% CO2 incubator. OCI-Ly10 cells were seeded to 96-well plate (20000 cells/well), compounds diluted with medium were added with final concentrations of 0.9 nM to 30000 nM (Final DMSO concentration, 0.3%), incubated for 96 hours and alamorBlue reagent (Thermo Fisher Scientific Inc.) was added.

Chain of dephosphorylated BTK (Q06187 whole entry): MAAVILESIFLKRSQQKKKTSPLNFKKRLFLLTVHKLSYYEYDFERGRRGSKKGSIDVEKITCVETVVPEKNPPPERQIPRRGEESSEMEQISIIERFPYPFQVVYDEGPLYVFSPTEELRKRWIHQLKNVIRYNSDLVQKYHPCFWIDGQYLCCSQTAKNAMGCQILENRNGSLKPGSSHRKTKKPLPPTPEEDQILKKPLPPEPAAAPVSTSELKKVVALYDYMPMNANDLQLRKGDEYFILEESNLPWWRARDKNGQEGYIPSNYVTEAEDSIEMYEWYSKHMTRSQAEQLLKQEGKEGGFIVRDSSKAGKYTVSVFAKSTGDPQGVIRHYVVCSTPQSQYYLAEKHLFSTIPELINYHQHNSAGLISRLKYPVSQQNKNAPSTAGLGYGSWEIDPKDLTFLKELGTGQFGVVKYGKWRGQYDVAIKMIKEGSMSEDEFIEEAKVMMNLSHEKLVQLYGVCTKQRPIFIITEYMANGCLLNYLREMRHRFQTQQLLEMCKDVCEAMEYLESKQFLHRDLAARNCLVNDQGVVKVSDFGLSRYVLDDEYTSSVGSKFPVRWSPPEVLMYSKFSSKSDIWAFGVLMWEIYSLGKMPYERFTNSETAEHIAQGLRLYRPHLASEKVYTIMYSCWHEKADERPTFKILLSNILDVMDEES

## Nc1nc(-c2cccc(-n3ccc4cc(C5CC5)cc(F)c4c3=O)c2CO)c2nc[nH]c2n1 [Example 4, 2-[3-(2-amino-9H-purin-6-yl)-2-(hydroxymethyl)phenyl]-6-cyclopropyl-8-fluoroisoquinolin-1(2H)-one]
Dephosphorylated BTK
  IC50: < 10 nM

## Nc1nc(-c2cccc(-n3ccc4cc(C5CC5)cc(F)c4c3=O)c2CO)c2cc[nH]c2n1 [Example 6, 2-[3-(2-amino-7H-pyrrolo[2,3-d]pyrimidin-4-yl)-2-(hydroxymethyl)phenyl]-6-cyclopropyl-8-fluoroisoquinolin-1(2H)-one]
Dephosphorylated BTK
  IC50: < 10 nM

## Cc1cc2c(-c3cccc(-n4ccc5cc(C6CC6)cc(F)c5c4=O)c3CO)nc(N)nc2[nH]1 [Example 7, 2-[3-(2-amino-6-methyl-7H-pyrrolo[2,3-d]pyrimidin-4-yl)-2-(hydroxymethyl)phenyl]-6-cyclopropyl-8-fluoroisoquinolin-1(2H)-one]
Dephosphorylated BTK
  IC50: < 10 nM

## Nc1nc(-c2cccc(-n3ccc4cc(C5CC5)cc(F)c4c3=O)c2CO)c2cc(C3CC3)[nH]c2n1 [Example 9, 2-[3-(2-amino-6-cyclopropyl-7H-pyrrolo[2,3-d]pyrimidin-4-yl)-2-(hydroxymethyl)phenyl]-6-cyclopropyl-8-fluoroisoquinolin-1(2H)-one]
Dephosphorylated BTK
  IC50: < 10 nM

## Cc1n[nH]c2nc(N)nc(-c3cccc(-n4ccc5cc(C6CC6)cc(F)c5c4=O)c3CO)c12 [Example 10, 2-[3-(6-amino-3-methyl-1H-pyrazolo[3,4-d]pyrimidin-4-yl)-2-(hydroxymethyl)phenyl]-6-cyclopropyl-8-fluoroisoquinolin-1(2H)-one]
Dephosphorylated BTK
  IC50: < 10 nM

## Nc1nc(-c2cccc(-n3ccc4cc(C5CC5)cc(F)c4c3=O)c2CO)c2cc(CO)[nH]c2n1 [Example 11, 2-{3-[2-amino-6-(hydroxymethyl)-7H-pyrrolo[2,3-d]pyrimidin-4-yl]-2-(hydroxymethyl)phenyl}-6-cyclopropyl-8-fluoroisoquinolin-1(2H)-one]
Dephosphorylated BTK
  IC50: 10 to 100 nM

## Nc1nc(-c2cccc(-n3ccc4cc(C5CC5)cc(F)c4c3=O)c2CO)c2nc(C3CC3)[nH]c2n1 [Example 12, 2-[3-(2-amino-8-cyclopropyl-9H-purin-6-yl)-2-(hydroxymethyl)phenyl]-6-cyclopropyl-8-fluoroisoquinolin-1(2H)-one]
Dephosphorylated BTK
  IC50: < 10 nM

## Nc1nc(-c2cccc(-n3ccc4cc(C5CC5)cc(F)c4c3=O)c2CO)c2cc(-c3ccncc3)[nH]c2n1 [Example 19, 2-{3-[2-amino-6-(pyridin-4-yl)-7H-pyrrolo[2,3-d]pyrimidin-4-yl]-2-(hydroxymethyl)phenyl}-6-cyclopropyl-8-fluoroisoquinolin-1(2H)-one]
Dephosphorylated BTK
  IC50: < 10 nM

## COc1ccc(-c2n[nH]c3nc(N)nc(-c4cccc(-n5ccc6cc(C7CC7)cc(F)c6c5=O)c4CO)c23)cc1 [Example 20, 2-{3-[6-amino-3-(4-methoxyphenyl)-1H-pyrazolo[3,4-d]pyrimidin-4-yl]-2-(hydroxymethyl)phenyl}-6-cyclopropyl-8-fluoroisoquinolin-1(2H)-one]
Dephosphorylated BTK
  IC50: < 10 nM

## COc1ccccc1-c1n[nH]c2nc(N)nc(-c3cccc(-n4ccc5cc(C6CC6)cc(F)c5c4=O)c3CO)c12 [Example 21, 2-{3-[6-amino-3-(2-methoxyphenyl)-1H-pyrazolo[3,4-d]pyrimidin-4-yl]-2-(hydroxymethyl)phenyl}-6-cyclopropyl-8-fluoroisoquinolin-1(2H)-one]
Dephosphorylated BTK
  IC50: < 10 nM

## COc1cccc(-c2n[nH]c3nc(N)nc(-c4cccc(-n5ccc6cc(C7CC7)cc(F)c6c5=O)c4CO)c23)c1 [Example 22, 2-{3-[6-amino-3-(3-methoxyphenyl)-1H-pyrazolo[3,4-d]pyrimidin-4-yl]-2-(hydroxymethyl)phenyl}-6-cyclopropyl-8-fluoroisoquinolin-1(2H)-one]
Dephosphorylated BTK
  IC50: < 10 nM

## COc1ccccc1-c1nc2c(-c3cccc(-n4ccc5cc(C6CC6)cc(F)c5c4=O)c3CO)nc(N)nc2[nH]1 [Example 24, 2-{3-[2-amino-8-(2-methoxyphenyl)-9H-purin-6-yl]-2-(hydroxymethyl)phenyl}-6-cyclopropyl-8-fluoroisoquinolin-1(2H)-one]
Dephosphorylated BTK
  IC50: < 10 nM

## Nc1nc(-c2cccc(-n3ccc4cc(C5CC5)cc(F)c4c3=O)c2CO)c2c(-c3ccccc3)c[nH]c2n1 [Example 28, 2-[3-(2-amino-5-phenyl-7H-pyrrolo[2,3-d]pyrimidin-4-yl)-2-(hydroxymethyl)phenyl]-6-cyclopropyl-8-fluoroisoquinolin-1(2H)-one]
Dephosphorylated BTK
  IC50: < 10 nM

## Nc1nc(-c2cccc(-n3ccc4cc(C5CC5)cc(F)c4c3=O)c2CO)c2cc(-c3cccc(F)c3)[nH]c2n1 [Example 29, 2-{3-[2-amino-6-(3-fluorophenyl)-7H-pyrrolo[2,3-d]pyrimidin-4-yl]-2-(hydroxymethyl)phenyl}-6-cyclopropyl-8-fluoroisoquinolin-1(2H)-one]
Dephosphorylated BTK
  IC50: < 10 nM
OCI-Ly10 cells
  IC50: 332 nM

## C=CC(=O)NCc1cc2c(-c3cccc(-n4ccc5cc(C6CC6)cc(F)c5c4=O)c3CO)nc(N)nc2[nH]1 [Example 30, N-({2-amino-4-[3-(6-cyclopropyl-8-fluoro-1-oxoisoquinolin-2(1H)-yl)-2-(hydroxymethyl)phenyl]-7H-pyrrolo[2,3-d]pyrimidin-6-yl}methyl)acrylamide]
Dephosphorylated BTK
  IC50: 10 to 100 nM

## Cn1cc(-c2nc3c(-c4cccc(-n5ccc6cc(C7CC7)cc(F)c6c5=O)c4CO)nc(N)nc3[nH]2)cn1 [Example 31, 2-{3-[2-amino-8-(1-methyl-1H-pyrazol-4-yl)-9H-purin-6-yl]-2-(hydroxymethyl)phenyl}-6-cyclopropyl-8-fluoroisoquinolin-1(2H)-one]
Dephosphorylated BTK
  IC50: < 10 nM
OCI-Ly10 cells
  IC50: 45 nM

## Nc1nc(-c2cccc(-n3ccc4cc(C5CC5)cc(F)c4c3=O)c2CO)c2cc(-c3ccccc3F)[nH]c2n1 [Example 33, 2-{3-[2-amino-6-(2-fluorophenyl)-7H-pyrrolo[2,3-d]pyrimidin-4-yl]-2-(hydroxymethyl)phenyl}-6-cyclopropyl-8-fluoroisoquinolin-1(2H)-one]
Dephosphorylated BTK
  IC50: < 10 nM
OCI-Ly10 cells
  IC50: 197 nM

## Nc1nc(-c2cccc(-n3ccc4cc(C5CC5)cc(F)c4c3=O)c2CO)c2cc(-c3ccc(F)cc3)[nH]c2n1 [Example 34, 2-{3-[2-amino-6-(4-fluorophenyl)-7H-pyrrolo[2,3-d]pyrimidin-4-yl]-2-(hydroxymethyl)phenyl}-6-cyclopropyl-8-fluoroisoquinolin-1(2H)-one]
Dephosphorylated BTK
  IC50: < 10 nM
OCI-Ly10 cells
  IC50: 102 nM

## Nc1nc(-c2cccc(-n3ccc4cc(C5CC5)cc(F)c4c3=O)c2CO)c2cc(-c3ccc(F)cc3F)[nH]c2n1 [Example 35, 2-{3-[2-amino-6-(2,4-difluorophenyl)-7H-pyrrolo[2,3-d]pyrimidin-4-yl]-2-(hydroxymethyl)phenyl}-6-cyclopropyl-8-fluoroisoquinolin-1(2H)-one]
Dephosphorylated BTK
  IC50: < 10 nM
OCI-Ly10 cells
  IC50: 428 nM

## Nc1nc(-c2cccc(-n3ccc4cc(C5CC5)cc(F)c4c3=O)c2CO)c2cc(-c3ccc(F)c(F)c3)[nH]c2n1 [Example 36, 2-{3-[2-amino-6-(3,4-difluorophenyl)-7H-pyrrolo[2,3-d]pyrimidin-4-yl]-2-(hydroxymethyl)phenyl}-6-cyclopropyl-8-fluoroisoquinolin-1(2H)-one]
Dephosphorylated BTK
  IC50: < 10 nM
OCI-Ly10 cells
  IC50: 450 nM

## Nc1nc(-c2cccc(-n3ccc4cc(C5CC5)cc(F)c4c3=O)c2CO)c2cc(-c3ccc(C(F)(F)F)cc3)[nH]c2n1 [Example 37, 2-(3-{2-amino-6-[4-(trifluoromethyl)phenyl]-7H-pyrrolo[2,3-d]pyrimidin-4-yl}-2-(hydroxymethyl)phenyl)-6-cyclopropyl-8-fluoroisoquinolin-1(2H)-one]
Dephosphorylated BTK
  IC50: < 10 nM
OCI-Ly10 cells
  IC50: 499 nM

## Nc1nc(-c2cccc(-n3ccc4cc(C5CC5)cc(F)c4c3=O)c2CO)c2cc(-c3ccc(OC(F)(F)F)cc3)[nH]c2n1 [Example 38, 2-(3-{2-amino-6-[4-(trifluoromethoxy)phenyl]-7H-pyrrolo[2,3-d]pyrimidin-4-yl}-2-(hydroxymethyl)phenyl)-6-cyclopropyl-8-fluoroisoquinolin-1(2H)-one]
Dephosphorylated BTK
  IC50: 10 to 100 nM
OCI-Ly10 cells
  IC50: 366 nM
